# Like-named read-outs stand apart in the source and are kept apart here. *1 amine or outer side, *2 acyl side, *3 side chain or, on linkers, in order; H or OH if unused. Where a SMILES comes first, the peptide text is derived from it. Bridges are numbered along the chain shown (N, C = ends). [ ]: non-standard residue; d: D form. X1 = CC(=O)NC(C(=O)OC(C(C)C)C(N[*:1])C(=O)[*:2])C(O)C(C)C; PhLac = O=C(O)[CH](O)Cc1ccccc1; NMeT = CN[CH](C(=O)O)[CH](C)O; NMeA = CN[CH](C)C(=O)O; NMeDha = C=C(NC)C(=O)O
# Tests used:
# [1] = system: sorted colonic ILC3s; assay: Il22 mRNA expression in sorted colonic ILC3s (qRT-PCR); format: cell-based, mouse; conditions: for Il22 expression upon Ffar2 activation with the Ffar2 agonist: overnight with Ffar2 agonist, AKT inhibitor VIII 10 μM, STAT3 inhibitor 10 μM
# Procedure: RNA isolation and real-time quantitative PCR (qRT-PCR). For analysis of sorted colonic immune cell populations including ILC subsets and colonic ILC3s, RNA was isolated using the RNeasy Micro Kit (Qiagen) or RNeasy Mini Kit (Qiagen) according to the manufacturer's protocol. For analysis of colonic epithelial cells or colon tissues, cells or tissues were homogenized directly into Qiazol (Qiagen), and RNA was isolated via chloroform extraction. The quantity and quality of RNA was determined using a NanoDrop (Thermo Scientific). […] Quantitative real-time PCR was carried out on cDNA with SYBR FAST Universal qPCR Master Mix (KAPA Biosystems). Reactions were run on a Stratagene Mx3005P machine (Agilent Technologies). The expression of individual genes was normalized to housekeeping gene β-actin expression on the base of the ΔΔCt algorithm. Some results are shown as a fold induction relative to expression levels in colonic epithelial cells as indicated. AKT and STAT3 inhibition.
# [2] = system: sorted colonic ILC3s; assay: Flow analysis of intracellular signaling (AKT, p38, ERK, STAT3 phosphorylation) in sorted colonic ILC3s from WT mice; format: cell-based, mouse
# Procedure: For analysis of intracellular signaling in ILC3s (Ibiza et al., 2016), sorted colonic ILC3s were rested for 2 hours in RPMI at 37° C.
# AKT and STAT3 inhibition. Sorted colonic ILC3s were rested for 2 hours in RPMI at 37° C. For analysis of STAT3 phosphorylation, cells were incubated with […] AKT inhibitor VIII (VIII, Sigma-Aldrich) (Ibiza et al., 2016) or vehicle as a control (DMSO) for 1h at 37° C. before stimulation with the Ffar2 agonist (10 μM/ml dissolved in water, pH 7.4). To determine Il22 expression levels, cells were incubated with 10 μM AKT inhibitor VIII, 10 μM STAT3 inhibitor VI (S3I, Sigma-Aldrich) (Ibiza et al., 2016) or vehicle during overnight stimulation with Ffar2 agonist at 37° C.
# [3] = system: sorted colonic ILC3s; assay: In vitro BrdU incorporation in sorted colonic ILC3s; format: cell-based, mouse; conditions: acetate 10 mM or propionate 10 mM with BrdU 10 μM overnight
# [4] = system: colonic ILC3s; assay: Colonic RORγt+ ILC3s in germ-free WT mice fed Ffar2 agonist or sodium acetate; format: in vivo, mouse; conditions: Ffar2 agonist 700 μM or sodium acetate 150 mM in drinking water, 1-2 weeks
# Procedure: GPR43 agonist. […] SCFA intervention. […] WT mice received sodium chloride (150 mM). […] Flow cytometry.
# [5] = molecular target: T1, Ffar2 (Homo sapiens, UniProt O15552); conditions: cited from earlier work; for agonism of Ffar2 among SCFAs: compared among acetate, propionate and butyrate
# T1 sequence (O15552 1-330): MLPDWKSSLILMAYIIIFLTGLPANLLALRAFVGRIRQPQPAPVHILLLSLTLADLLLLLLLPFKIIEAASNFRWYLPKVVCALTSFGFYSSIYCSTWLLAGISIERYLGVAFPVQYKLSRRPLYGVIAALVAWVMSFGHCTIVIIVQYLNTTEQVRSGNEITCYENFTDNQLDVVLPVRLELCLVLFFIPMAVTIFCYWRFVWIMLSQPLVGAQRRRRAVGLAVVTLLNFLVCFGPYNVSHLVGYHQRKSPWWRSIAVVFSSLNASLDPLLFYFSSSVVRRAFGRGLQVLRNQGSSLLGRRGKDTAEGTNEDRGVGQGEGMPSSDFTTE
# [6] = system: colonic ILC3s; conditions: WT mice, drinking water 2 weeks; acetate 150 mM, propionate 150 mM, butyrate 100 mM; control sodium chloride
# Procedure: SCFA intervention. […] WT mice received sodium chloride (150 mM). […] Drinking water solutions were freshly prepared and changed every 5 days.
# Isolation of colonic epithelial cells and immune cells. Colons were dissected and fat and blood vessels were removed. Colons were cut open longitudinally and washed with PBS to remove feces and debris, then incubated in PBS containing 5 mM EDTA, 0.145 mg/ml Dithiothreitol (Sigma-Aldrich), 3% FBS and 1% penicillin/streptomycin (P/S) for 15 min at 37° C. for 2 cycles. After being vortexed for 15s, the dissociated cells were collected as colonic epithelial cells. For the isolation of lamina propria immune cells, the remaining colonic tissues were washed twice in PBS, cut into 1 mm in length, and digested in RPMI 1640 containing 0.5 mg/ml collagenase D (Roche), 0.01 mg/ml DNase I (Roche), and 0.5 mg/ml Dispase (Stem Cell Technologies) for 30 min at 37° C. on a shaking platform. The digested tissues were passed through 70 μm strainers after being vigorously vortexed for 15s. Then, colonic immune cells were collected and resuspended in PBS with 1% fetal bovine serum and 1% penicillin-streptomycin solution (Corning) for flow cytometry analysis, FACSAria sorting or RNA extraction.
# Flow cytometry. Single-cell suspensions were stained with a combination of fluorescently conjugated monoclonal antibodies. CD16/32 antibody (93; BioLegend) was used to block the non-specific binding to Fc receptors before surface staining. Cells were stained with Fixable yellow dead cell stain kit (Invitrogen) for the detection of live/dead cells before staining of the cell surface. All antibodies were purchased from BioLegend unless otherwise specified. For surface marker staining, antibodies to the following mouse proteins were used: CD45 (30-F11), CD90.2 (53-2.1), lineage markers (17A2/RB6-8C5/RA3-6B2/Ter-119/M1/70), CCR6 (29-21.17), NKp46 (29A1.4), CD11b (M1/70), CD11c (N418), Gr-1 (RB6-8C5), MHC class II (M5/114.15.2), NK1.1 (PK136), KLRG1 (2F1), CD3c (145-2C11), CD4 (RM4.5). […]
# [7] = system: Peyer's patch ILC3s; conditions: cited from earlier work
# [8] = system: C57BL/6 Rag2−/− mice; assay: T cell-transfer colitis model; format: in vivo, mouse; conditions: Ffar2 agonist or sodium propionate for 6 weeks
# Procedure: GPR43 agonist. […] SCFA intervention. […] WT mice received sodium chloride (150 mM). […] Histology. Colons were cleaned with PBS prior to fixation in 4% PFA and then processed by routine paraffin embedding, sectioning and H&E staining. Colitis scores were determined by a pathologist (J. N. G.), who was blinded to the experimental parameters. Each of the four histologic parameters was scored as absent (0), mild (1), moderate (2), or severe (3): mononuclear cell infiltration, polymorphonuclear cell infiltration, epithelial hyperplasia, and epithelial injury. The scores for the parameters were summed to generate the cumulative histologic colitis score as previously described^60, 61. For the DSS-induced model, cumulative histologic scores were also quantified as to the percentage involvement by the disease process: […] (3) 30-50%; (4) >50% and presented as histologic colitis scores^62 as follows: (cumulative score*involvement)+cumulative score. T cell-transfer colitis model. Splenic T cells (CD3^+CD4^+CD25^-CD45RB^hi) were sorted from C57BL/6J WT mice and injected i.p. into C57BL/6J Rag2^-/- mice (5×10^5 cells/mouse). […] Mice were monitored weekly for weight loss and morbidity for 6-8 weeks as per the protocol's experimental endpoint guidelines and sacrificed at the terminal time point of 6 weeks post injection of splenic […].
# [9] = WT ILC3s, propionate 10 mM, 1 h
compound,measurement,setting,value
O=c1[nH]c2ccccc2n1C1CCN(Cc2ccc(-c3nc4cc5[nH]cnc5cc4nc3-c3ccccc3)cc2)CC1 [AKT inhibitor (VIII)],Il22 expression upon Ffar2 activation with the Ffar2 agonist,"[1]; PTX 500 ng/mL, YM-254890 1 mM","decreased 11-22, but to a lesser extent"
same,STAT3 activation upon Ffar2 activation with the Ffar2 agonist,[2]; AKT inhibitor VIII 1 h before stimulation with Ffar2 agonist,impaired
Cc1ccc(S(=O)(=O)OCC(=O)Nc2ccc(C(=O)O)c(O)c2)cc1 [STAT3 inhibitor (S31)],Il22 expression upon Ffar2 activation with the Ffar2 agonist,"[1]; PTX 500 ng/mL, YM-254890 1 mM",impaired
same,Il22 expression upon Ffar2 activation with the Ffar2 agonist,"[1]; PTX 500 ng/mL, YM-254890 1 mM, listed as STAT3 inhibitor",decreased
C=C1C(=O)NC(C)C(=O)N(C)C(C)C(=O)NC(C(OC(=O)C(NC(C)=O)C(O)C(C)C)C(C)C)C(=O)N(C)C(C(C)OC)C(=O)OC(C)C(NC(C)=O)C(=O)OC(Cc2ccccc2)C(=O)N1C (stereo not drawn) [YM-254890] (Ac-T[PhLac][NMeDha]A[NMeA][X1][NMeT](Me); ester 1-C; configuration not given here),Il22 expression upon Ffar2 activation with the Ffar2 agonist,"[1]; PTX 500 ng/mL, YM-254890 1 mM",abolished
same,Il22 expression upon activation with propionate,"[1]; propionate 10 mM overnight, PTX 500 ng/mL, YM-254890 1 mM, ERK inhibitor 10 μM",decreased IL22 transcripts to a lesser extent
CC(=O)[O-].[Na+] [sodium acetate],percentage of BrdU+ ILC3s,[3],increased
same,colonic ILC3 numbers,[4],increased
same,Il22 mRNA expression in sorted ILC3s cultured with ligand,[1],did not alter
same,agonism of Ffar2 among SCFAs,[5],far more potent activators of Ffar2
same,colonic ILC3 frequency and number,[6],increased
CCCC(=O)[O-].[Na+] [sodium butyrate],effect on Peyer's patch ILC3s,[7],suppress
same,colonic ILC3 frequency and number,[6],did not change
CCC(=O)[O-].[Na+] [sodium propionate],percentage of BrdU+ ILC3s,[3],did not
same,colitis (histologic colitis score),[8],ameliorated colitis similar to the effect of sodium propionate
same,Il22 mRNA expression in sorted ILC3s cultured with ligand,"[1]; acetate 10 mM, propionate 10 mM or Ffar2 agonist 10 mM","to a lesser extent, propionate increased"
same,potency for Ffar2 compared with the synthetic Ffar2 agonist,[5],lower potency
same,agonism of Ffar2 among SCFAs,[5],far more potent activators of Ffar2
same,colonic ILC3 frequency and number,[6],increased
same,"phosphorylation of AKT, p38, ERK and STAT3","[2]; WT ILC3s, propionate 10 mM, 30 min",did not induce
same,pSTAT3+ ILC3s,[2]; [9],did increase
same,share of ILC3s that were pSTAT3+,[2]; [9],1%-1.5%
same,percentage of pERK+ ILC3s,"[2]; WT ILC3s, propionate 10 mM, 1 h compared with shorter time",comparable
same,pERK level,"[2]; WT ILC3s, propionate 10 mM, 1 h versus 30 min",did induce a higher pERK
